Earlier results in US20030190375A1, “Therapeutical use of sophora flavescens or sophora subprostrata extracts” (priority 2000, published 2003).

Columns and labels:
Ishikawa-Var-I cells = details: Milligan et al 1999
[1] = Huang, The Pharmacology of Chinese Herbs, 1993

| SMILES | oestrogenic potency in vitro (stimulation of alkaline phosphatase) (Ishikawa-Var-I cells) | toxic effects in animal studies [1] |
| --- | --- | --- |
| CC(C)=CCc1c(O)cc(O)c2c1O[C@H](c1ccc(O)cc1)CC2=O [8-prenylnaringenine] | significantly more active than the long-familiar phyto-oestrogens such as cumesterol, genistone or daidzin, and produced only a slightly weaker effect than 17β oestradiol |  |
| O=C1CCC[C@@H]2[C@H]3CCC[N+]4([O-])CCC[C@@H](CN12)[C@@H]34 (some centres unmarked) [oxymatrine] |  | toxic effects could be shown |
